# Key:
# Test in all cases: relative viability (nuclei count vs DMSO), 5 days (fraction); higher = more cells survive
# 201T = test system: 201T
# Method in brief: (§1)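 After 5 days of treatment, lung cancer cells in 1536-well plates were fixed and stained in a single step (final 0.05% Triton X-100, 1% formaldehyde, 1 ug/ml Hoechst) and their nuclei counted on 4× images. Treatment had been applied by pin tool the day after seeding as one drug alone or as a fixed anchor-drug dose with five library-drug doses (not always all listed) in √10 steps. Relative viability is the nuclei count of treated wells divided by that of vehicle wells, and values are medians of duplicate plates.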
# NCI-H358 = test system: NCI-H358
# Method in brief: as §1
# BEN = test system: BEN
# Method in brief: as §1
# NCI-H2087 = test system: NCI-H2087
# Method in brief: as §1
# NCI-H2126 = test system: NCI-H2126
# Method in brief: as §1
# EKVX = test system: EKVX
# Method in brief: as §1
# NCI-H441 = test system: NCI-H441
# Method in brief: as §1
# EMC-BAC-2 = test system: EMC-BAC-2
# Method in brief: as §1
# COR-L23 = test system: COR-L23
# Method in brief: as §1
# NCI-H1650 = test system: NCI-H1650
# Method in brief: as §1
# EPLC-272H = test system: EPLC-272H
# Method in brief: as §1
# NCI-H1915 = test system: NCI-H1915
# Method in brief: as §1
# LCLC-103H = test system: LCLC-103H
# Method in brief: as §1
# NCI-H1651 = test system: NCI-H1651
# Method in brief: as §1
# NCI-H2347 = test system: NCI-H2347
# Method in brief: as §1
# NCI-H596 = test system: NCI-H596
# Method in brief: as §1
# HCC-44 = test system: HCC-44
# Method in brief: as §1
# SW 1573 = test system: SW 1573
# Method in brief: as §1
# LK-2 = test system: LK-2
# Method in brief: as §1
# NCI-H1793 = test system: NCI-H1793
# Method in brief: as §1
# HCC-827 = test system: HCC-827
# Method in brief: as §1
# LXF-289 = test system: LXF-289
# Method in brief: as §1
# A-427 = test system: A-427
# Method in brief: as §1
# NCI-H460 = test system: NCI-H460
# Method in brief: as §1
# SW 900 = test system: SW 900
# Method in brief: as §1
compound,measurement,setting,value
CCCCCCCCCCCC1=C(O)C(=O)C=C(O)C1=O [Embelin] + O=C(CCCCCCC(=O)Nc1ccccc1)NO [Vorinostat] (partner 1 µM),relative viability,201T; first compound 0.08 µM,0.993
same,relative viability,201T; first compound 0.8 µM,1.01
same,relative viability,201T; first compound 2.53 µM,1.04
same,relative viability,201T; first compound 8 µM,0.851
same,relative viability,NCI-H358; first compound 0.08 µM,0.699
same,relative viability,NCI-H358; first compound 0.8 µM,0.876
same,relative viability,NCI-H358; first compound 2.53 µM,0.707
same,relative viability,NCI-H358; first compound 8 µM,0.697
same,relative viability,BEN; first compound 0.08 µM,0.57
same,relative viability,BEN; first compound 0.8 µM,0.613
same,relative viability,BEN; first compound 2.53 µM,0.647
same,relative viability,BEN; first compound 8 µM,0.515
same,relative viability,NCI-H2087; first compound 0.08 µM,0.659
same,relative viability,NCI-H2087; first compound 0.8 µM,0.714
same,relative viability,NCI-H2087; first compound 2.53 µM,0.759
same,relative viability,NCI-H2087; first compound 8 µM,0.744
same,relative viability,NCI-H2126; first compound 0.08 µM,0.803
same,relative viability,NCI-H2126; first compound 0.8 µM,0.763
same,relative viability,NCI-H2126; first compound 2.53 µM,0.796
same,relative viability,NCI-H2126; first compound 8 µM,0.6
same,relative viability,EKVX; first compound 0.08 µM,0.744
same,relative viability,EKVX; first compound 0.8 µM,0.962
same,relative viability,EKVX; first compound 2.53 µM,0.832
same,relative viability,EKVX; first compound 8 µM,0.754
same,relative viability,NCI-H441; first compound 0.08 µM,0.691
same,relative viability,NCI-H441; first compound 0.8 µM,0.905
same,relative viability,NCI-H441; first compound 2.53 µM,0.841
same,relative viability,NCI-H441; first compound 8 µM,0.657
same,relative viability,EMC-BAC-2; first compound 0.08 µM,0.344
same,relative viability,EMC-BAC-2; first compound 0.8 µM,0.561
same,relative viability,EMC-BAC-2; first compound 2.53 µM,0.257
same,relative viability,EMC-BAC-2; first compound 8 µM,0.269
same,relative viability,COR-L23; first compound 0.08 µM,0.404
same,relative viability,COR-L23; first compound 0.8 µM,0.559
same,relative viability,COR-L23; first compound 2.53 µM,0.386
same,relative viability,COR-L23; first compound 8 µM,0.492
same,relative viability,NCI-H1650; first compound 0.08 µM,0.634
same,relative viability,NCI-H1650; first compound 0.8 µM,0.641
same,relative viability,NCI-H1650; first compound 2.53 µM,0.543
same,relative viability,NCI-H1650; first compound 8 µM,0.562
same,relative viability,EPLC-272H; first compound 0.08 µM,0.372
same,relative viability,EPLC-272H; first compound 0.8 µM,0.62
same,relative viability,EPLC-272H; first compound 2.53 µM,0.471
same,relative viability,EPLC-272H; first compound 8 µM,0.363
same,relative viability,NCI-H1915; first compound 0.08 µM,0.563
same,relative viability,NCI-H1915; first compound 0.8 µM,0.544
same,relative viability,NCI-H1915; first compound 2.53 µM,0.521
same,relative viability,NCI-H1915; first compound 8 µM,0.473
same,relative viability,LCLC-103H; first compound 0.08 µM,0.851
same,relative viability,LCLC-103H; first compound 0.8 µM,0.885
same,relative viability,LCLC-103H; first compound 2.53 µM,0.75
same,relative viability,LCLC-103H; first compound 8 µM,0.714
same,relative viability,NCI-H1651; first compound 0.08 µM,0.576
same,relative viability,NCI-H1651; first compound 0.8 µM,0.629
same,relative viability,NCI-H1651; first compound 2.53 µM,0.575
same,relative viability,NCI-H1651; first compound 8 µM,0.59
same,relative viability,NCI-H2347; first compound 0.08 µM,0.557
same,relative viability,NCI-H2347; first compound 0.8 µM,0.628
same,relative viability,NCI-H2347; first compound 2.53 µM,0.513
same,relative viability,NCI-H2347; first compound 8 µM,0.656
same,relative viability,NCI-H596; first compound 0.08 µM,0.56
same,relative viability,NCI-H596; first compound 0.8 µM,0.73
same,relative viability,NCI-H596; first compound 2.53 µM,0.667
same,relative viability,NCI-H596; first compound 8 µM,0.495
same,relative viability,HCC-44; first compound 0.08 µM,1.09
same,relative viability,HCC-44; first compound 0.8 µM,1.08
same,relative viability,HCC-44; first compound 2.53 µM,1.12
same,relative viability,HCC-44; first compound 8 µM,1.2
same,relative viability,SW 1573; first compound 0.08 µM,0.7
same,relative viability,SW 1573; first compound 0.8 µM,1.1
same,relative viability,SW 1573; first compound 2.53 µM,0.817
same,relative viability,SW 1573; first compound 8 µM,0.716
same,relative viability,LK-2; first compound 0.08 µM,0.308
same,relative viability,LK-2; first compound 0.8 µM,0.28
same,relative viability,LK-2; first compound 2.53 µM,0.261
same,relative viability,LK-2; first compound 8 µM,0.307
same,relative viability,NCI-H1793; first compound 0.08 µM,0.728
same,relative viability,NCI-H1793; first compound 0.8 µM,0.842
same,relative viability,NCI-H1793; first compound 2.53 µM,0.754
same,relative viability,NCI-H1793; first compound 8 µM,0.439
same,relative viability,HCC-827; first compound 0.08 µM,0.806
same,relative viability,HCC-827; first compound 0.8 µM,0.915
same,relative viability,HCC-827; first compound 2.53 µM,0.966
same,relative viability,HCC-827; first compound 8 µM,0.917
same,relative viability,LXF-289; first compound 0.08 µM,0.803
same,relative viability,LXF-289; first compound 0.8 µM,0.742
same,relative viability,LXF-289; first compound 2.53 µM,0.715
same,relative viability,LXF-289; first compound 8 µM,0.809
same,relative viability,A-427; first compound 0.08 µM,0.856
same,relative viability,A-427; first compound 0.8 µM,0.899
same,relative viability,A-427; first compound 2.53 µM,0.88
same,relative viability,A-427; first compound 8 µM,0.441
same,relative viability,NCI-H460; first compound 0.08 µM,0.687
same,relative viability,NCI-H460; first compound 0.8 µM,0.948
same,relative viability,NCI-H460; first compound 2.53 µM,0.933
same,relative viability,NCI-H460; first compound 8 µM,0.397
same,relative viability,SW 900; first compound 0.08 µM,0.604
same,relative viability,SW 900; first compound 0.8 µM,0.718
same,relative viability,SW 900; first compound 2.53 µM,0.538
same,relative viability,SW 900; first compound 8 µM,0.315
